Consider 1 molecule from patent US9545409B2 (priority 2012, dated 2017).

Experiment [1] relates to central eye artery. Kind of experiment: blood circulation in the central eye artery under model ischemia-reperfusion. It counts as in vivo. As to conditions: rats, intravenous, doses of 3, 5, 10, 20 and 100 mg/kg.
Experiment [2] deals with NMDA-receptors. Nature of the experiment: blocking/unblocking of NMDA-receptors. To be noted: stated property, no test described.
Experiment [3] has as its system ischemia-reperfusion eye model.
[4] abbreviates: rats, parenteral, within 96 hours of ischemia, doses of 3, 5, 10, 20 and 100 mg/kg.

Regarding `OC(COCCC12CC3CC(CC(C3)C1)C2)CN1CCOCC1` (stereo not shown) [1-adamantylethyloxy-3-morpholino-2-propanol], the “blood circulation in the central eye artery” value in experiment [1] is on record as “stimulates”. Besides, the “blocking/unblocking NMDA-receptors” value in experiment [2] was “fast blocking/unblocking”. In experiment [3] (setting [4]), the “disturbed indicators of acid-alkali balance, oxidative stress and energy metabolism in the retina” value was “promoted the normalization”; the “number of apoptotic and necrotic cells in eye posterior part” value was “reduces”; the “perivascular edema in the retina and optic nerve” value is recorded as “attenuated”; the “retinal manifestations of endothelial dysfunction and nitrosating stress” value is given as “promoted the reduction”. Also, the “neuroprotective properties under ischemic-hypoxic injury of retina and optic nerve” value in experiment [3] (summary of the studies, composition concentration range 3-100 mg/ml) is “expressed neuroprotective properties”.
